This passage reports IC50 results from patent US8883782B2, “Spiro-tetracyclic ring compounds as beta-secretase modulators and methods of use” (Amgen Inc., priority 2010, dated 2014).

The target of assay [1] is Beta Secretase enzyme (BACE) (Homo sapiens, UniProt P56817). As to the kind of experiment: In vitro enzymatic BACE FRET (fluorescence resonance energy transfer) assay. Format: biochemical. Particulars: average IC50, enzyme assay. In a few lines:
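Fluorescence read after Tris quench (pH raised to neutrality) of a one-hour BACE reaction. Buffer: acetate 0.05 M, pH 4.2, with 100 uM genapol and 10% DMSO final; started by adding 50 nM FRET peptide substrate spanning the cleavage site.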

Assay [2] has as its system Aβ40 in conditioned medium of cells stably expressing Amyloid Precursor Protein (APP). The assay can be described thus: In vitro BACE cell-based assay (Aβ40 in conditioned medium, sandwich ELISA). In a few lines:
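Conditioned medium from stably APP-expressing cells treated with compound dose series is assayed for Aβ40 by sandwich ELISA with time-resolved fluorescence detection. IC50 is calculated from percent inhibition of Aβ40 against compound concentration.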
In general terms: An ELISA detects its analyte on a solid surface through an enzyme-linked reagent.

[3] abbreviates: Homo sapiens, HEK293, average IC50, HEK cells, read-out: HEK cell assay.
[4] abbreviates: Homo sapiens, HEK293, average IC50, read-out: HEK cell assay.

Like-named read-outs stand apart in the source and are kept apart here.

Sequence of Beta Secretase enzyme (BACE) (P56817 46-501, species assumed): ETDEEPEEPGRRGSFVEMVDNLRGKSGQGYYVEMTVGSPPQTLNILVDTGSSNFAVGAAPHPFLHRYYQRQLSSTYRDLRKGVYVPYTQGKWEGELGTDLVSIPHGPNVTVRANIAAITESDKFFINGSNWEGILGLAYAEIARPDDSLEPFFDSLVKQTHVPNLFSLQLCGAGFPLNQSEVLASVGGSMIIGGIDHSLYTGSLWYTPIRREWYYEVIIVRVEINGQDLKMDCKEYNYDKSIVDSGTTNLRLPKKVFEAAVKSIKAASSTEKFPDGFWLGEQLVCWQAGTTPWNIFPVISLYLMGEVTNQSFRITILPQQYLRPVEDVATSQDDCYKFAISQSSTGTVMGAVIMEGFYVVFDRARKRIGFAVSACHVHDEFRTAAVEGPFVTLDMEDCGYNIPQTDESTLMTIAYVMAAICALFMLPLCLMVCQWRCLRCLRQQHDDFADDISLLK

`NC1=N[C@@]2(CO1)c1cc(OCc3ccncc3)ccc1Oc1ncc(C3=CCOCC3)cc12` [Example 970, (5S)-3-(3,6-dihydro-2H-pyran-4-yl)-7-(4-pyridinylmethoxy)spiro[chromeno[2,3-b]pyridine-5,4′-[1,3]oxazol]-2′-amine]: the IC50 in assay [1] (read-out: BACE 1 FRET assay) was found to be 0.112 µM; in assay [2] (setting [3]) it was 0.455 µM.
On to `Cn1cc(-c2cnc3c(c2)[C@]2(COC(N)=N2)c2c(ccc(-c4cccnc4F)c2F)O3)cn1` [Example 356, (5R)-6-fluoro-7-(2-fluoro-3-pyridinyl)-3-(1-methyl-1H-pyrazol-4-yl)spiro[chromeno[2,3-b]pyridine-5,4′-[1,3]oxazol]-2′-amine], for which the results for the IC50 in assay [1] (read-out: BACE 1 FRET assay) and in assay [2] (setting [4]) were 0.0009 µM and 0.0139 µM, respectively.
In the case of `COC(C)(C)COc1cnc2c(c1)[C@]1(COC(N)=N1)c1cc(-c3cccc(F)c3F)ccc1O2` [Example 315, (5S)-7-(2,3-difluorophenyl)-3-(2-methoxy-2-methylpropoxy)spiro[chromeno[2,3-b]pyridine-5,4′-[1,3]oxazol]-2′-amine], the results for the IC50 in assay [1] (read-out: BACE 1 FRET assay) and in assay [2] (setting [4]) were 0.0052 µM and 0.0317 µM, respectively.
Turning to `CC(C)(C#N)COc1cc(F)c2c(c1)[C@@]1(COC(N)=N1)c1cc(-c3cccnc3F)c(F)cc1O2` [Example 863, 3-(((4R)-2-amino-4′,6′-difluoro-7′-(2-fluoro-3-pyridinyl)spiro[1,3-oxazole-4,9′-xanthen]-2′-yl)oxy)-2,2-dimethylpropanenitrile], the IC50 in assay [1] (read-out: BACE 1 FRET assay) was found to be 0.0801 µM; in assay [2] (setting [3]), 2.36 µM.
Take `CC1(C#Cc2cncc(-c3ccc4c(c3)[C@@]3(COC(N)=N3)c3cc(Cl)ncc3O4)c2)COC1` [Example 810, (5S)-3-chloro-7-(5-((3-methyl-3-oxetanyl)ethynyl)-3-pyridinyl)spiro[chromeno[2,3-c]pyridine-5,4′-[1,3]oxazol]-2′-amine]: the IC50 in assay [1] (read-out: BACE 1 FRET assay) is 0.604 µM; in assay [2] (setting [4]) it was at least 10 µM.
Consider `CC1(COc2ccc3c(c2)[C@@]2(COC(N)=N2)c2cc(Br)cc(F)c2O3)COC1` [Example 437, (4S)-2′-bromo-4′-fluoro-7′-((3-methyl-3-oxetanyl)methoxy)spiro[1,3-oxazole-4,9′-xanthen]-2-amine], for which the IC50 in assay [1] (read-out: BACE 1 FRET assay) stood at 0.202 µM; in assay [2] (setting [3]), 1.92 µM.
The corresponding values for `COc1ccc2c(c1)[C@@]1(COC(N)=N1)c1cc(-n3ccc(C)n3)cc(F)c1O2` [Example 664, (4S)-4′-fluoro-7′-methoxy-2′-(3-methyl-1H-pyrazol-1-yl)spiro[1,3-oxazole-4,9′-xanthen]-2-amine] are 1 µM and 6.67 µM.
In the case of `CC(C)(O)C#Cc1cncc(-c2ccc3c(c2)[C@@]2(COC(N)=N2)c2cc(-c4ccnc(F)c4)ncc2O3)c1` [Example 817, 4-(5-((5S)-2′-amino-3-(2-fluoro-4-pyridinyl)spiro[chromeno[2,3-c]pyridine-5,4′-[1,3]oxazol]-7-yl)-3-pyridinyl)-2-methyl-3-butyn-2-ol], the values for the IC50 in assay [1] (read-out: BACE 1 FRET assay) and in assay [2] (setting [4]) were 0.0135 µM and 1.48 µM, respectively.
In the case of `CC1(C)C=C(c2cc3c(cn2)Oc2ccc(-c4cncnc4)cc2[C@@]32COC(N)=N2)CCO1` [Example 543, (5S)-3-(6,6-dimethyl-3,6-dihydro-2H-pyran-4-yl)-7-(5-pyrimidinyl)spiro[chromeno[2,3-c]pyridine-5,4′-[1,3]oxazol]-2′-amine], the IC50 in assay [1] (read-out: BACE 1 FRET assay) was found to be 0.0016 µM; in assay [2] (average IC50, HEK cells, read-out: HEK cell assay), 0.0246 µM.
Consider `C=CCN(C)c1cc(F)c2c(c1)[C@]1(COC(N)=N1)c1cc(-c3cccnc3F)ccc1O2` [Example 853, (4S)-4′-fluoro-7′-(2-fluoro-3-pyridinyl)-N~2~′-methyl-N~2~′-2-propen-1-ylspiro[1,3-oxazole-4,9′-xanthene]-2,2′-diamine], for which the IC50 in assay [1] (read-out: BACE 1 FRET assay) amounted to 0.004 µM; in assay [2] (setting [3]), 0.085 µM.
For the compound `CC#Cc1cncc(-c2ccc3c(c2)[C@]2(COC(N)=N2)c2cc(C4CCOCC4)nc(F)c2O3)c1` [Example 754, (5R)-1-fluoro-7-(5-(1-propyn-1-yl)-3-pyridinyl)-3-(tetrahydro-2H-pyran-4-yl)spiro[chromeno[2,3-c]pyridine-5,4′-[1,3]oxazol]-2′-amine], the IC50 turned out to be 0.156 µM in assay [1] (read-out: BACE 1 FRET assay) and 0.691 µM in assay [2] (setting [4]).
The corresponding values for `NC1=N[C@@]2(CO1)c1cc(-c3cncc(F)c3)ccc1Oc1c(F)cc(N3CC4CCC(C3)O4)cc12` [Example 283, (4S)-4′-fluoro-7′-(5-fluoro-3-pyridinyl)-2′-(8-oxa-3-azabicyclo[3.2.1]oct-3-yl)spiro[1,3-oxazole-4,9′-xanthen]-2-amine] are 0.0004 µM and 0.0032 µM.
Turning to `CC1(COc2cc(F)c3c(c2)[C@]2(COC(N)=N2)c2cc(-c4cncc(C#N)c4)ccc2O3)COC1` [Example 552, 5-((4S)-2-amino-5′-fluoro-7′-((3-methyl-3-oxetanyl)methoxy)spiro[1,3-oxazole-4,9′-xanthen]-2′-yl)-3-pyridinecarbonitrile], the IC50 was 0.0009 µM in assay [1] (read-out: BACE 1 FRET assay) and 0.0031 µM in assay [2] (setting [3]).
The matching figures for `CC1(C)CCN(c2cnc3c(c2)[C@]2(COC(N)=N2)c2cc(-c4cccnc4F)ccc2O3)CC1` [Example 480, (5S)-3-(4,4-dimethyl-1-piperidinyl)-7-(2-fluoro-3-pyridinyl)spiro[chromeno[2,3-b]pyridine-5,4′-[1,3]oxazol]-2′-amine]: 0.0025 µM and 0.0094 µM.
`NC1=N[C@@]2(CS1)c1cc(-c3cccnc3)ccc1Oc1c(F)cc(N3CCOCC3)cc12` [Example 799, (4S)-4′-fluoro-2′-(4-morpholinyl)-7′-(3-pyridinyl)spiro[1,3-thiazole-4,9′-xanthen]-2-amine]: the IC50 came out at 0.0015 µM in assay [1] (read-out: BACE 1 FRET assay) and 0.018 µM in assay [2] (setting [4]).
As for `COc1ccc2c(c1)[C@@]1(COC(N)=N1)c1cc(-n3nccc3C)cc(F)c1O2` [Example 663, (4S)-4′-fluoro-7′-methoxy-2′-(5-methyl-1H-pyrazol-1-yl)spiro[1,3-oxazole-4,9′-xanthen]-2-amine], the figures for the IC50 in assay [1] (read-out: BACE 1 FRET assay) and in assay [2] (setting [3]) were 0.43 µM and 8.52 µM, respectively.
Consider `NC1=N[C@@]2(CO1)c1cc(-c3cncc(F)c3)ccc1Oc1c(F)cc(C3=CCOC3)cc12` [Example 288, (4S)-2′-(2,5-dihydro-3-furanyl)-4′-fluoro-7′-(5-fluoro-3-pyridinyl)spiro[1,3-oxazole-4,9′-xanthen]-2-amine], for which the IC50 worked out at 0.0003 µM in assay [1] (read-out: BACE 1 FRET assay) and 0.0041 µM in assay [2] (setting [4]).
The corresponding values for `NC1=N[C@@]2(CS1)c1cc(-c3cccnc3F)ccc1Oc1c(F)cc(-c3ccnc(F)c3)cc12` [Example 1071, (4S)-4′-fluoro-7′-(2-fluoro-3-pyridinyl)-2′-(2-fluoro-4-pyridinyl)spiro[1,3-thiazole-4,9′-xanthen]-2-amine] are 0.0003 µM and 0.044 µM.
In the case of `COc1cc(F)c2c(c1)[C@]1(COC(N)=N1)c1cc(Br)c(F)cc1O2` [Example 523, (4S)-2′-bromo-3′,5′-difluoro-7′-methoxyspiro[1,3-oxazole-4,9′-xanthen]-2-amine], the IC50 in assay [1] (read-out: BACE 1 FRET assay) is 0.884 µM; in assay [2] (setting [3]), 1.78 µM.
On to `NC1=N[C@@]2(CO1)c1cc(-c3cccnc3)ccc1Oc1c2cc(C2=CCOCC2)c(F)c1F` [Example 1007, (4S)-2′-(3,6-dihydro-2H-pyran-4-yl)-3′,4′-difluoro-7′-(3-pyridinyl)spiro[1,3-oxazole-4,9′-xanthen]-2-amine], for which the IC50 stood at 0.0019 µM in assay [1] (read-out: BACE 1 FRET assay) and 0.024 µM in assay [2] (setting [4]).
The matching figures for `CC1(C#Cc2cc3c(cn2)Oc2ccc(-c4cccnc4)cc2[C@@]32COC(N)=N2)COC1` [Example 154, (5S)-3-((3-methyl-3-oxetanyl)ethynyl)-7-(3-pyridinyl)spiro[chromeno[2,3-c]pyridine-5,4′-[1,3]oxazol]-2′-amine]: 0.0014 µM and 0.0065 µM.
As for `COc1cncc(-c2ccc3c(c2)[C@@]2(COC(N)=N2)c2cc(C4CCOCC4)cc(F)c2O3)c1` [Example 937, (4S)-4′-fluoro-7′-(5-methoxy-3-pyridinyl)-2′-(tetrahydro-2H-pyran-4-yl)spiro[1,3-oxazole-4,9′-xanthen]-2-amine], the IC50 in assay [1] (read-out: BACE 1 FRET assay) is 0.0017 µM; in assay [2] (setting [3]), 0.028 µM.
Take `NC1=N[C@@]2(CO1)c1cc(-c3cncc(Cl)c3)ccc1Oc1cnc(C3CCOCC3)cc12` [Example 242, (5S)-7-(5-chloro-3-pyridinyl)-3-(tetrahydro-2H-pyran-4-yl)spiro[chromeno[2,3-c]pyridine-5,4′-[1,3]oxazol]-2′-amine]: the IC50 in assay [1] (read-out: BACE 1 FRET assay) came out at 0.0031 µM; in assay [2] (setting [4]), 0.0211 µM.
The matching figures for `NC1=N[C@@]2(CO1)c1cc(-c3cncc(Cl)c3)ccc1Oc1c(F)cc(N3CCOCC3)cc12` [Example 208, (4S)-7′-(5-chloro-3-pyridinyl)-4′-fluoro-2′-(4-morpholinyl)spiro[1,3-oxazole-4,9′-xanthen]-2-amine]: 0.0008 µM and 0.0038 µM.
For the compound `CC#Cc1cncc(-c2ccc3c(c2)[C@@]2(COC(N)=N2)c2cc(C#CC4(C)COC4)cnc2O3)c1` [Example 943, (5S)-3-((3-methyl-3-oxetanyl)ethynyl)-7-(5-(1-propyn-1-yl)-3-pyridinyl)spiro[chromeno[2,3-b]pyridine-5,4′-[1,3]oxazol]-2′-amine], the IC50 amounted to 0.0007 µM in assay [1] (read-out: BACE 1 FRET assay) and 0.001 µM in assay [2] (setting [3]).
With `NC1=N[C@@]2(CO1)c1cc(-c3cccnc3F)ccc1Oc1cnc([C@@H]3CCCOC3)cc12` [Example 382, (5S)-7-(2-fluoro-3-pyridinyl)-3-((3S)-tetrahydro-2H-pyran-3-yl)spiro[chromeno[2,3-c]pyridine-5,4′-[1,3]oxazol]-2′-amine], the IC50 amounted to 0.0113 µM in assay [1] (BACE 1 FRET assay (uM)) and 0.123 µM in assay [2] (Homo sapiens, HEK293, read-out: HEK cell assay (uM)).
